Measured values reported in ChEMBL document CHEMBL1268982, “Design, synthesis, and structure-activity relationship studies of N-arylsulfonyl morpholines as γ-secretase inhibitors” (Bioorg Med Chem Lett, 2010).

target: not listed separately; test: Inhibition of gamma-secretase-mediated amyloid beta-40 production; settings: not given

First: CC(C)[C@@H]1COC[C@H](C2(OC(=O)N3CC4CCC(C3)N4)CC2)N1S(=O)(=O)c1ccc(Cl)cc1
Second: CC(C)[C@@H]1COC[C@H](C2(OC(=O)N3CC4CNCC4C3)CC2)N1S(=O)(=O)c1ccc(Cl)cc1 (stereo partly specified)
The IC50 of the first is 4.7-fold lower: 2 nM for the first, 9.3 nM for the second.

`CC(C)[C@@H]1COC[C@H](C2(OC(=O)N3CC[C@@H](O)C3)CC2)N1S(=O)(=O)c1ccc(Cl)cc1` and `CC(C)[C@@H]1COC[C@H](C2(OC(=O)N3CC[C@H](O)C3)CC2)N1S(=O)(=O)c1ccc(Cl)cc1` are within 1.5-fold of each other in IC50: 18.9 nM for the first, 17 nM for the second.

Compared with `CC(C)[C@@H]1COC[C@H](C2(OC(=O)N3CCC(CO)CC3)CC2)N1S(=O)(=O)c1ccc(Cl)cc1`, `CC(C)[C@@H]1COC[C@H](C2(OC(=O)N3CCNCC3)CC2)N1S(=O)(=O)c1ccc(Cl)cc1` is 2.2-fold higher in IC50: 6.5 nM for the first, 14.5 nM for the second.

`CC(C)(C)[C@@H]1COC[C@H](COC(=O)N2CCN(C(C)(C)CO)CC2)N1S(=O)(=O)c1ccc(Cl)cc1` and `CC1([C@@H]2COC[C@H](COC(=O)N3CCN(C(C)(C)CO)CC3)N2S(=O)(=O)c2ccc(Cl)cc2)CC1` are within 1.5-fold of each other in IC50: 34.7 nM for the first, 39.3 nM for the second.

`CC(C)(C)[C@@H]1COC[C@H](COC(=O)N2CCC(CO)CC2)N1S(=O)(=O)c1ccc(Cl)cc1` and `CC1([C@@H]2COC[C@H](COC(=O)N3CCC(CO)CC3)N2S(=O)(=O)c2ccc(Cl)cc2)CC1` are within 1.5-fold of each other in IC50: 108 nM for the first, 131 nM for the second.

Going from `CC1([C@@H]2COC[C@H](COC(=O)N3CCC(N4CCCCC4)CC3)N2S(=O)(=O)c2ccc(Cl)cc2)CC1` to `CN1CCC12CCN(C(=O)OC1([C@H]3COC[C@@H](CC4CC4)N3S(=O)(=O)c3ccc(Cl)cc3)CC1)CC2`, the IC50 falls from 20.4 nM to 2.6 nM (7.8-fold).

Going from `O=C(OC1([C@H]2COC[C@@H](CC3CC3)N2S(=O)(=O)c2ccc(Cl)cc2)CC1)N1CC2CCC(C1)N2` to `CC(=O)N1C2CCC1CN(C(=O)OC1([C@H]3COC[C@@H](CC4CC4)N3S(=O)(=O)c3ccc(Cl)cc3)CC1)C2`, the IC50 rises from 0.8 nM to 4.4 nM (5.5-fold).

Going from `O=C(OC1([C@H]2COC[C@@H](CC3CC3)N2S(=O)(=O)c2ccc(Cl)cc2)CC1)N1CC2CCC(C1)N2CCO` to `C[C@@H]1CN(C(=O)OC2([C@H]3COC[C@@H](CC4CC4)N3S(=O)(=O)c3ccc(Cl)cc3)CC2)C[C@H](C)N1CCO`, the IC50 rises from 0.9 nM to 11.6 nM (13-fold).

Compared with `CCNC(=O)N1C2CCC1CN(C(=O)OC1([C@H]3COC[C@@H](CC4CC4)N3S(=O)(=O)c3ccc(Cl)cc3)CC1)C2`, `O=C(OC1([C@H]2COC[C@@H](CC3CC3)N2S(=O)(=O)c2ccc(Cl)cc2)CC1)N1CC2CC1CN2CCO` (stereo partly specified) is 1.5-fold lower in IC50: 5.5 nM for the first, 3.6 nM for the second.

`CN1CCN(C(=O)OC2([C@H]3COC[C@@H](CC4CC4)N3S(=O)(=O)c3ccc(Cl)cc3)CC2)CC1=O` and `O=C1CC2(CCN(C(=O)OC3([C@H]4COC[C@@H](CC5CC5)N4S(=O)(=O)c4ccc(Cl)cc4)CC3)CC2)N1` are within 1.5-fold of each other in IC50: 5.7 nM for the first, 7.4 nM for the second.

`CC[C@H]1CN(C(C)=O)[C@H](C)CN1C(=O)OC1([C@H]2COC[C@@H](CC3CC3)N2S(=O)(=O)c2ccc(Cl)cc2)CC1` and `CC(C)(CO)N1CCN(C(=O)OC2([C@H]3COC[C@@H](CC4CC4)N3S(=O)(=O)c3ccc(Cl)cc3)CC2)CC1` are within 1.5-fold of each other in IC50: 29.3 nM for the first, 27.6 nM for the second.

For `O=C(OC1([C@H]2COC[C@@H](CC3CC3)N2S(=O)(=O)c2ccc(Cl)cc2)CC1)N1CCC2(CCN2)CC1`, the IC50 was 3.1 nM.

target: Cytochrome P450 3A4 (Homo sapiens, UniProt P08684); test: Inhibition of CYP3A4 after 30 mins; assay type: ADME; settings: not given
Sequence (P08684 whole entry): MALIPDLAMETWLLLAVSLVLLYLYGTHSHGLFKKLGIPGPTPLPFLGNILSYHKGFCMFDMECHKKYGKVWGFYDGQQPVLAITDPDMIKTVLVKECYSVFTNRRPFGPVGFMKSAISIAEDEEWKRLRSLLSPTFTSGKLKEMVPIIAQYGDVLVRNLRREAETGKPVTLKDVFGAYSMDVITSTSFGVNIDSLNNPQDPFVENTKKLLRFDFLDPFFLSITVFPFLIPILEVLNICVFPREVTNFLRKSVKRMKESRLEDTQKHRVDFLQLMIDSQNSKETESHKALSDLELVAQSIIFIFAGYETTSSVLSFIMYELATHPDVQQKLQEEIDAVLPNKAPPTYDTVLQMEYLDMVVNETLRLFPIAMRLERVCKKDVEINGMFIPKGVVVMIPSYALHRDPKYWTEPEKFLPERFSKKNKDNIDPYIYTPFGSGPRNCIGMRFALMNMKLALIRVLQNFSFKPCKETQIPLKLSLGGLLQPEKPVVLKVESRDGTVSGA

Going from `CC(C)[C@@H]1COC[C@H](C2(OC(=O)N3CC4CCC(C3)N4)CC2)N1S(=O)(=O)c1ccc(Cl)cc1` to `CC(C)[C@@H]1COC[C@H](C2(OC(=O)N3CC4CNCC4C3)CC2)N1S(=O)(=O)c1ccc(Cl)cc1` (stereo partly specified), the IC50 rises from 500 nM to 6400 nM (13-fold). The first is the more potent here.

First: CC(C)[C@@H]1COC[C@H](C2(OC(=O)N3CC[C@@H](O)C3)CC2)N1S(=O)(=O)c1ccc(Cl)cc1
Second: CC(C)[C@@H]1COC[C@H](C2(OC(=O)N3CC[C@H](O)C3)CC2)N1S(=O)(=O)c1ccc(Cl)cc1
The IC50 of the first is 2.2-fold lower: 13600 nM for the first, 30000 nM for the second.

Compared with `CC(C)[C@@H]1COC[C@H](C2(OC(=O)N3CCC(CO)CC3)CC2)N1S(=O)(=O)c1ccc(Cl)cc1`, `CC(C)[C@@H]1COC[C@H](C2(OC(=O)N3CCNCC3)CC2)N1S(=O)(=O)c1ccc(Cl)cc1` is 46-fold lower in IC50: 13800 nM for the first, 300 nM for the second.

Going from `CC(C)(C)[C@@H]1COC[C@H](COC(=O)N2CCN(C(C)(C)CO)CC2)N1S(=O)(=O)c1ccc(Cl)cc1` to `CC1([C@@H]2COC[C@H](COC(=O)N3CCN(C(C)(C)CO)CC3)N2S(=O)(=O)c2ccc(Cl)cc2)CC1`, the IC50 falls from 23800 nM to 500 nM (48-fold).

`CC(C)(C)[C@@H]1COC[C@H](COC(=O)N2CCC(CO)CC2)N1S(=O)(=O)c1ccc(Cl)cc1` and `CC1([C@@H]2COC[C@H](COC(=O)N3CCC(CO)CC3)N2S(=O)(=O)c2ccc(Cl)cc2)CC1` are within 1.5-fold of each other in IC50: 7100 nM for the first, 5500 nM for the second.

Going from `CC1([C@@H]2COC[C@H](COC(=O)N3CCC(N4CCCCC4)CC3)N2S(=O)(=O)c2ccc(Cl)cc2)CC1` to `CN1CCC12CCN(C(=O)OC1([C@H]3COC[C@@H](CC4CC4)N3S(=O)(=O)c3ccc(Cl)cc3)CC1)CC2`, the IC50 rises from 1500 nM to 30000 nM (20-fold).

Compared with `O=C(OC1([C@H]2COC[C@@H](CC3CC3)N2S(=O)(=O)c2ccc(Cl)cc2)CC1)N1CC2CCC(C1)N2`, `CC(=O)N1C2CCC1CN(C(=O)OC1([C@H]3COC[C@@H](CC4CC4)N3S(=O)(=O)c3ccc(Cl)cc3)CC1)C2` is higher in IC50: 800 nM for the first, > 30000 nM for the second. The first is the more potent here.

`O=C(OC1([C@H]2COC[C@@H](CC3CC3)N2S(=O)(=O)c2ccc(Cl)cc2)CC1)N1CC2CCC(C1)N2CCO` and `C[C@@H]1CN(C(=O)OC2([C@H]3COC[C@@H](CC4CC4)N3S(=O)(=O)c3ccc(Cl)cc3)CC2)C[C@H](C)N1CCO` are within 1.5-fold of each other in IC50: 2300 nM for the first, 2000 nM for the second.

Compared with `CCNC(=O)N1C2CCC1CN(C(=O)OC1([C@H]3COC[C@@H](CC4CC4)N3S(=O)(=O)c3ccc(Cl)cc3)CC1)C2`, `O=C(OC1([C@H]2COC[C@@H](CC3CC3)N2S(=O)(=O)c2ccc(Cl)cc2)CC1)N1CC2CC1CN2CCO` (stereo partly specified) is lower in IC50: > 30000 nM for the first, 3200 nM for the second.

First: CN1CCN(C(=O)OC2([C@H]3COC[C@@H](CC4CC4)N3S(=O)(=O)c3ccc(Cl)cc3)CC2)CC1=O
Second: O=C1CC2(CCN(C(=O)OC3([C@H]4COC[C@@H](CC5CC5)N4S(=O)(=O)c4ccc(Cl)cc4)CC3)CC2)N1
The IC50 of the first is lower: 1400 nM for the first, > 30000 nM for the second.

`CC[C@H]1CN(C(C)=O)[C@H](C)CN1C(=O)OC1([C@H]2COC[C@@H](CC3CC3)N2S(=O)(=O)c2ccc(Cl)cc2)CC1` and `CC(C)(CO)N1CCN(C(=O)OC2([C@H]3COC[C@@H](CC4CC4)N3S(=O)(=O)c3ccc(Cl)cc3)CC2)CC1` cannot be ordered by IC50: > 30000 nM for the first, > 30000 nM for the second.

With `O=C(OC1([C@H]2COC[C@@H](CC3CC3)N2S(=O)(=O)c2ccc(Cl)cc2)CC1)N1CCC2(CCN2)CC1` the IC50 was 11300 nM.

system: not listed separately; test: AUC (0 to 6 hrs) in rat at 10 mg/kg, po; assay type: ADME, organism-based; set-up: time < 6 hr, dose 10 mg/kg, route oral; settings: plasma

First: CC(C)[C@@H]1COC[C@H](C2(OC(=O)N3CC4CCC(C3)N4)CC2)N1S(=O)(=O)c1ccc(Cl)cc1
Second: CC(C)[C@@H]1COC[C@H](C2(OC(=O)N3CC4CNCC4C3)CC2)N1S(=O)(=O)c1ccc(Cl)cc1 (stereo partly specified)
The AUC(0-t) at 6 h of the first is 4.4-fold higher: 4.97 µM·h for the first, 1.12 µM·h for the second.

First: CC(C)[C@@H]1COC[C@H](C2(OC(=O)N3CC[C@@H](O)C3)CC2)N1S(=O)(=O)c1ccc(Cl)cc1
Second: CC(C)[C@@H]1COC[C@H](C2(OC(=O)N3CCNCC3)CC2)N1S(=O)(=O)c1ccc(Cl)cc1
The AUC(0-t) at 6 h of the first is 110-fold lower: 0.036 µM·h for the first, 3.93 µM·h for the second.

Going from `O=C(OC1([C@H]2COC[C@@H](CC3CC3)N2S(=O)(=O)c2ccc(Cl)cc2)CC1)N1CC2CCC(C1)N2` to `CC(=O)N1C2CCC1CN(C(=O)OC1([C@H]3COC[C@@H](CC4CC4)N3S(=O)(=O)c3ccc(Cl)cc3)CC1)C2`, the AUC(0-t) at 6 h falls from 4.58 µM·h to 0.013 µM·h (350-fold).

`O=C(OC1([C@H]2COC[C@@H](CC3CC3)N2S(=O)(=O)c2ccc(Cl)cc2)CC1)N1CC2CCC(C1)N2CCO` and `C[C@@H]1CN(C(=O)OC2([C@H]3COC[C@@H](CC4CC4)N3S(=O)(=O)c3ccc(Cl)cc3)CC2)C[C@H](C)N1CCO` are within 1.5-fold of each other in AUC(0-t) at 6 h: 1.28 µM·h for the first, 1.23 µM·h for the second.

Compared with `CCNC(=O)N1C2CCC1CN(C(=O)OC1([C@H]3COC[C@@H](CC4CC4)N3S(=O)(=O)c3ccc(Cl)cc3)CC1)C2`, `O=C(OC1([C@H]2COC[C@@H](CC3CC3)N2S(=O)(=O)c2ccc(Cl)cc2)CC1)N1CC2CC1CN2CCO` (stereo partly specified) is 23-fold higher in AUC(0-t) at 6 h: 0.06 µM·h for the first, 1.35 µM·h for the second.

Compared with `CN1CCN(C(=O)OC2([C@H]3COC[C@@H](CC4CC4)N3S(=O)(=O)c3ccc(Cl)cc3)CC2)CC1=O`, `O=C1CC2(CCN(C(=O)OC3([C@H]4COC[C@@H](CC5CC5)N4S(=O)(=O)c4ccc(Cl)cc4)CC3)CC2)N1` is 28-fold lower in AUC(0-t) at 6 h: 1.02 µM·h for the first, 0.037 µM·h for the second.

Compared with `CC(C)(CO)N1CCN(C(=O)OC2([C@H]3COC[C@@H](CC4CC4)N3S(=O)(=O)c3ccc(Cl)cc3)CC2)CC1`, `CN1CCC12CCN(C(=O)OC1([C@H]3COC[C@@H](CC4CC4)N3S(=O)(=O)c3ccc(Cl)cc3)CC1)CC2` is 12-fold higher in AUC(0-t) at 6 h: 0.077 µM·h for the first, 0.894 µM·h for the second.

With `O=C(OC1([C@H]2COC[C@@H](CC3CC3)N2S(=O)(=O)c2ccc(Cl)cc2)CC1)N1CCC2(CCN2)CC1` the AUC(0-t) at 6 h was 1.34 µM·h.
